# Laboratory results published in patent publication US20260256721A1, “ANTI-COCCIDIAL COMPOSITION COMPRISING QUINIC ACID AND USES THEREOF” (priority 2023, published 2026).
# Where two headings read alike, the source gives them in different places.
# Tests used:
# [1] = system: Eimeria tenella protozoa (sporozoites); assay: microbe, parasite or virus in culture; assay type: cell-based
# Source text: (§1) A certain amount of oocysts (eggs) of Eimeria tenella and Eimeria maxima protozoa (College of Veterinary Medicine, Gyeongsang National University, Korea) were put in a tube containing glass beads and crushed, and then, in order to remove crushed oocyst cell walls and other debris, internal sporocysts were purified using Percoll density gradient, and washed with a PBS solution. For excystation of internal sporozoites, reagents comprising sodium taurocholic acid (sigma aldirich, USA) and trypsin (Ginco, USA), respectively, were treated to Eimeria tenella and Eimeria maxima sporangia and they were incubated, and then washed with PBS (Phosphate-Buffered Saline) solution once and the protozoa were obtained.
# Quinic acid (Sigma, Cas No. 77-95-2) at concentrations ranging from 0 to 1000 ppm was reacted with Eimeria tenella oocysts at 40° C. for 3 hours. Following this, only live protozoa (sporozoites) were counted by microscopy. The mortality rate (%) of the protozoa was measured for each substance treatment compared to the negative control group treated with PBS. The results, as shown in FIG. 1 and Table 2, confirmed the anti-coccidial efficacy of quinic acid depending on the concentration.
# (§2) Then, the mortality rate (%) was measured when each substance was treated compared to a negative control group to which PBS was treated, and the result is shown in Table 3 below.
# After reacting 0.1% (v/v) DMSO, quinic acid, chlorogenic acid, theogallin, and cryptochlorogenic acid, respectively, with Eimeria tenella protozoa at a concentration of 10 ppm at 40° C. for 3 hours, only living protozoa (sporozoites) were counted by microscopy. Then, the mortality rate (%) was measured when each substance was treated compared to a negative control group to which PBS was treated, and the result is shown in Table 5 below.
# The Eimeria tenella protozoa were killed by treating the quinic acid or sugarcane extract up to 1000 ppm concentration at maximum, and the minimal treatment concentration showing a mortality rate of 50% or more against Eimeria tenella protozoa was shown in Table 6 below.
# [2] = system: Eimeria maxima protozoa (sporozoites); assay: Direct killing effect against Eimeria maxima protozoa (live sporozoites counted by microscopy); assay type: cell-based; conditions: 3 h, read-out: Mortality rate of Eimeria maxima orozites [Killed sporozoites %]
# Source text: as §1, §2
# [3] = Eimeria tenella, 3 h, read-out: Mortality rate of Eimeria tenella orozites [Killed sporozoites %]
# [4] = Eimeria tenella, 3 h, read-out: Mortality rate of Eimeria tenella sporozites [Killed sporozoites %]
# [5] = Eimeria tenella, each substance treated up to 1000 ppm, minimum concentration with mortality rate of 50% or higher, x not defined (Table 4)
# [6] = Eimeria tenella, 3 h, read-out: The mortality rate
smiles,measurement,setting,value
"O=C(O)/C=C/c1ccc(O)c(O)c1 [Caffeic acid, caffeic acid, reference compound]",mortality at 10 ppm,[1]; [3],0%
same,mortality at 10 ppm,[2],0%
"O=C(/C=C/c1ccc(O)c(O)c1)O[C@@H]1C[C@](O)(C(=O)O)C[C@@H](O)[C@H]1O [Chlorogenic acid, chlorogenic acid, reference compound]",mortality at 10 ppm,[1]; [3],0%
same,mortality at 10 ppm,[1]; [4],0%
same,Minimum Dose for killed 50% sporozoite,[1]; [5],500 ppm
same,mortality at 10 ppm,[2],0%
"O=C(/C=C/c1ccc(O)c(O)c1)O[C@H]1[C@H](O)C[C@](O)(C(=O)O)C[C@H]1O [Cryptochlorogenic acid, cryptochlorogenic acid, reference compound]",Mortality rate of Eimeria tenella sporozites [Killed sporozoites %],"[1]; 10 ppm, 40° C., 3 hours, compared to PBS negative control (Table 5)",0%
"COc1cc(/C=C/C(=O)O)ccc1O [Ferulic acid, ferulic acid, reference compound]",mortality at 10 ppm,[1]; [3],0%
same,mortality at 10 ppm,[2],0%
"O=C(O)[C@]1(O)C[C@@H](O)[C@@H](O)[C@H](O)C1 [Quinic acid, quinic acid]",mortality at 10 ppm,[1]; [3],32%
same,mortality at 10 ppm,[1]; [4],32%
same,mortality at 0.78 ppm,[1]; [6],7.4%
same,mortality at 1.56 ppm,[1]; [6],14.9%
same,mortality at 3.125 ppm,[1]; [6],20.2%
same,mortality at 6.25 ppm,[1]; [6],25.5%
same,mortality at 12.5 ppm,[1]; [6],31.9%
same,mortality at 25 ppm,[1]; [6],35.1%
same,mortality at 50 ppm,[1]; [6],55.3%
same,mortality at 100 ppm,[1]; [6],59.6%
same,mortality at 250 ppm,[1]; [6],91.5%
same,mortality at 500 ppm,[1]; [6],97.9%
same,mortality at 1000 ppm,[1]; [6],100%
same,Minimum Dose for killed 50% sporozoite,[1]; [5],50 ppm
same,Minimum Dose for killed 50% sporozoite,"[1]; Eimeria tenella, treated up to 1000 ppm at maximum, minimal concentration with mortality rate of 50% or more (Table 6)",50 ppm
same,mortality at 10 ppm,[2],34%
"O=C(O)/C=C/c1cccc(O)c1 [m-coumaric acid, reference compound]",mortality at 10 ppm,"[1]; Eimeria tenella, 10 ppm, 40° C., 3 hours, compared to PBS negative control (Table 3), read-out: Mortality rate of Eimeria tenella orozites [Killed sporozoites %]",10.7%
same,Minimum Dose for killed 50% sporozoite,[1]; [5],500 ppm
same,mortality at 10 ppm,[2],6.4%
